Results from patent US20260234115A1, “LIPID COMPOUNDS, COMPOSITIONS, AND USES THEREOF” (Liberate Bio, Inc., priority 2023, published 2026).
Marks after values point to notes of the source that are not given here.

Tested on: mouse organs
Assay: In vivo activity screening in mice: organ mean total flux (p/s) of luciferase activity after injection of F2 LNP pools (Table 6, FIG. 7A-7C)
Settings: luciferase mRNA
Summary of the method: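 C57BL/6J mice given one tail-vein injection of pooled Formulation F2 LNPs carrying firefly luciferase mRNA (0.25-3 mg/kg) in PBS. At 4-6 h, s.c. D-luciferin given; organs imaged ex vivo by IVIS within 10-15 min, after saline cardiac perfusion. Mean total flux (p/s) per organ ROI.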

In the case of CCCCC/C=C\CCOC(=O)CCCC(=O)OCC(COC(=O)CCCC(=O)OCC/C=C\CCCCC)(COC(=O)CCCC(=O)OCC/C=C\CCCCC)COC(=O)CCC(CCCCCC)OC(=O)NCCN1CCCC1 (stereo not shown) [Compound 49, O5-[2,2-bis[[5-[(Z)-non-3-enoxy]-5-oxo-pentanoyl]oxymethyl]-3-[4-(2-pyrrolidin-1-ylethylcarbamoyloxy)decanoyloxy]-propyl]O1-[(Z)-non-3-enyl]pentanedioate], the “Organ Mean Total Flux Femur” value (Mouse 13, dose 0.5 mg/kg) is reported as 10.2 p/s (×10^6), the “Organ Mean Total Flux Heart” value (Mouse 13, dose 0.5 mg/kg) is reported as 0.5 p/s (×10^6) and the “Organ Mean Total Flux Kidney” value (Mouse 13, dose 0.5 mg/kg) is reported as 1.4 p/s (×10^6). The “Organ Mean Total Flux Liver” value (Mouse 13, dose 0.5 mg/kg) was 185.5 p/s (×10^6), the “Organ Mean Total Flux Lung” value (Mouse 13, dose 0.5 mg/kg) was 11.8 p/s (×10^6) and the “Organ Mean Total Flux Muscle” value (Mouse 13, dose 0.5 mg/kg) was 2.9 p/s (×10^6). For the same compound, the “Organ Mean Total Flux Pancreas” value (Mouse 13, dose 0.5 mg/kg) was 7.5 p/s (×10^6) and the “Organ Mean Total Flux Spleen” value (Mouse 13, dose 0.5 mg/kg) was 57.1 p/s (×10^6).

CCCCCCCCOC(=O)CCCCCC(=O)OCC(COC(=O)CCCCCC(=O)OCCCCCCCC)(COC(=O)CCCCCC(=O)OCCCCCCCC)COC(=O)CCC(CCCCCC)OC(=O)NCCN1CCCC1 (stereo not shown) [Compound 34, O7-[2,2-bis[(7-octoxy-7-oxo-heptanoyl)oxymethyl]-3-[4-(2-pyrrolidin-1-ylethylcarbamoyloxy)decanoyloxy]propyl]O1-octyl heptanedioate] was tested, and the “Organ Mean Total Flux Femur” value (Mouse 6, dose 0.5 mg/kg) was 10.5 p/s (×10^6), the “Organ Mean Total Flux Heart” value (Mouse 6, dose 0.5 mg/kg) was 3.3 p/s (×10^6) and the “Organ Mean Total Flux Kidney” value (Mouse 6, dose 0.5 mg/kg) was 6.7 p/s (×10^6). For the same compound, the “Organ Mean Total Flux Liver” value (Mouse 6, dose 0.5 mg/kg) was 1610 p/s (×10^6), the “Organ Mean Total Flux Lung” value (Mouse 6, dose 0.5 mg/kg) was 20.2 p/s (×10^6) and the “Organ Mean Total Flux Muscle” value (Mouse 6, dose 0.5 mg/kg) was 28.3 p/s (×10^6). The “Organ Mean Total Flux Pancreas” value (Mouse 6, dose 0.5 mg/kg) was 12.8 p/s (×10^6) and the “Organ Mean Total Flux Spleen” value (Mouse 6, dose 0.5 mg/kg) was 39.4 p/s (×10^6).

For CCCCC/C=C\CCOC(=O)CCCCC(=O)OCC(COC(=O)CCCCC(=O)OCC/C=C\CCCCC)(COC(=O)CCC(CCCCCC)OC(=O)NCCN1CCCC1)COC(=O)C1CCC2C(C1)C2(F)F (stereo not shown) [Compound 103, O6-[2-[(7,7-difluoronorcarane-3-carbonyl)oxymethyl]-2-[[6-[(Z)-non-3-enoxy]-6-oxo-hexanoyl]oxymethyl]-3-[4-(2-pyrrolidin-1ylethylcarbamoyloxy)decanoyloxy]propyl]O1-[(Z)-non-3-enyl]hexanedioate], the “Organ Mean Total Flux Femur” value (Mouse 13, dose 0.5 mg/kg) was 26.0 p/s (×10^6), the “Organ Mean Total Flux Heart” value (Mouse 13, dose 0.5 mg/kg) was 0.8 p/s (×10^6) and the “Organ Mean Total Flux Kidney” value (Mouse 13, dose 0.5 mg/kg) was 2.4 p/s (×10^6). For the same compound, the “Organ Mean Total Flux Liver” value (Mouse 13, dose 0.5 mg/kg) was 444.3 p/s (×10^6), the “Organ Mean Total Flux Lung” value (Mouse 13, dose 0.5 mg/kg) was 16.0 p/s (×10^6) and the “Organ Mean Total Flux Muscle” value (Mouse 13, dose 0.5 mg/kg) was 4.5 p/s (×10^6). For the same compound, the “Organ Mean Total Flux Pancreas” value (Mouse 13, dose 0.5 mg/kg) was 13.5 p/s (×10^6) and the “Organ Mean Total Flux Spleen” value (Mouse 13, dose 0.5 mg/kg) was 161.3 p/s (×10^6).

With CCCCCCCC(C)OC(=O)CCCCCCC(=O)OCC(COC(=O)CCCCCCC(=O)OC(C)CCCCCCC)(COC(=O)CCCCCCC(=O)OC(C)CCCCCCC)COC(=O)CCC(CCCCCC)OC(=O)NCCN1CCCC1 (stereo not shown) [Compound 37, O1-[2,2-bis[[8-(1-methyloctoxy)-8-oxo-octanoyl]oxymethyl]-3-[4-(2-pyrrolidin-1-ylethylcarbamoyloxy)decanoyloxy]propyl]O8-(1-methyloctyl) octanedioate] the “Organ Mean Total Flux Femur” value (Mouse 11, dose 0.5 mg/kg) was 2.2 p/s (×10^6), the “Organ Mean Total Flux Heart” value (Mouse 11, dose 0.5 mg/kg) was 1.9 p/s (×10^6) and the “Organ Mean Total Flux Kidney” value (Mouse 11, dose 0.5 mg/kg) was 0.8 p/s (×10^6). The “Organ Mean Total Flux Liver” value (Mouse 11, dose 0.5 mg/kg) was 1737 p/s (×10^6), the “Organ Mean Total Flux Lung” value (Mouse 11, dose 0.5 mg/kg) was 10.5 p/s (×10^6) and the “Organ Mean Total Flux Muscle” value (Mouse 11, dose 0.5 mg/kg) was 5.2 p/s (×10^6). The “Organ Mean Total Flux Pancreas” value (Mouse 11, dose 0.5 mg/kg) was 0.6 p/s (×10^6) and the “Organ Mean Total Flux Spleen” value (Mouse 11, dose 0.5 mg/kg) was 2.5 p/s (×10^6).

CCCCCCC(CCCC)COC(=O)CCCCCC(=O)OCC(COC(=O)CCCCCC(=O)OCC(CCCC)CCCCCC)(COC(=O)CCCCCC(=O)OCC(CCCC)CCCCCC)COC(=O)CCC(CCCCCC)OC(=O)NCCN1CCCC1 (stereo not shown) [Compound 51, O7-[2,2-bis[[7-(2-butyloctoxy)-7-oxo-heptanoyl]oxymethyl]-3-[4-(2-pyrrolidin-1ylethylcarbamoyloxy)decanoyloxy]propyl]O1-(2-butyloctyl) heptanedioate] was tested, and the “Organ Mean Total Flux Femur” value (Mouse 3, dose 1.0 mg/kg) was 7.5 p/s (×10^6), the “Organ Mean Total Flux Heart” value (Mouse 3, dose 1.0 mg/kg) was 16.0 p/s (×10^6) and the “Organ Mean Total Flux Kidney” value (Mouse 3, dose 1.0 mg/kg) was 7.2 p/s (×10^6). The “Organ Mean Total Flux Liver” value (Mouse 3, dose 1.0 mg/kg) was 15467 p/s (×10^6), the “Organ Mean Total Flux Lung” value (Mouse 3, dose 1.0 mg/kg) was 59.6 p/s (×10^6) and the “Organ Mean Total Flux Muscle” value (Mouse 3, dose 1.0 mg/kg) was 16.5 p/s (×10^6). For the same compound, the “Organ Mean Total Flux Pancreas” value (Mouse 3, dose 1.0 mg/kg) was 4.9 p/s (×10^6) and the “Organ Mean Total Flux Spleen” value (Mouse 3, dose 1.0 mg/kg) was 9.7 p/s (×10^6).

CCCCC/C=C\CCOC(=O)CCCCCC(=O)OCC(COC(=O)CCCCC)(COC(=O)CCCCCC(=O)OCC/C=C\CCCCC)COC(=O)CCC(CCCCCC)OC(=O)NCCN1CCCC1 (stereo not shown) [Compound 60] was tested, and the “Organ Mean Total Flux Femur” value (Mouse 2, dose 1.0 mg/kg) was 56.4 p/s (×10^6), the “Organ Mean Total Flux Heart” value (Mouse 2, dose 1.0 mg/kg) was 2.9 p/s (×10^6) and the “Organ Mean Total Flux Kidney” value (Mouse 2, dose 1.0 mg/kg) was 5.5 p/s (×10^6). The “Organ Mean Total Flux Liver” value (Mouse 2, dose 1.0 mg/kg) was 1118 p/s (×10^6), the “Organ Mean Total Flux Lung” value (Mouse 2, dose 1.0 mg/kg) was 72.8 p/s (×10^6) and the “Organ Mean Total Flux Muscle” value (Mouse 2, dose 1.0 mg/kg) was 28.7 p/s (×10^6). The “Organ Mean Total Flux Pancreas” value (Mouse 2, dose 1.0 mg/kg) was 86.2 p/s (×10^6), the “Organ Mean Total Flux Spleen” value (Mouse 2, dose 1.0 mg/kg) was 367.7 p/s (×10^6) and the “Organ Mean Total Flux Femur” value (Mouse 14, dose 0.5 mg/kg) was 11.4 p/s (×10^6). The “Organ Mean Total Flux Heart” value (Mouse 14, dose 0.5 mg/kg) was 2.5 p/s (×10^6), the “Organ Mean Total Flux Kidney” value (Mouse 14, dose 0.5 mg/kg) was 4.1 p/s (×10^6) and the “Organ Mean Total Flux Liver” value (Mouse 14, dose 0.5 mg/kg) was 448.0 p/s (×10^6). The “Organ Mean Total Flux Lung” value (Mouse 14, dose 0.5 mg/kg) was 20.5 p/s (×10^6), the “Organ Mean Total Flux Muscle” value (Mouse 14, dose 0.5 mg/kg) was 14.9 p/s (×10^6) and the “Organ Mean Total Flux Pancreas” value (Mouse 14, dose 0.5 mg/kg) was 18.0 p/s (×10^6). For the same compound, the “Organ Mean Total Flux Spleen” value (Mouse 14, dose 0.5 mg/kg) was 42.7 p/s (×10^6).

With CCCCCCCCC(C)OC(=O)CCCCCCC(=O)OCC(COC(=O)CCCCCCC(=O)OC(C)CCCCCCCC)(COC(=O)CCCCCCC(=O)OC(C)CCCCCCCC)COC(=O)CCC(CCCCCC)OC(=O)NCCN1CCCC1 (stereo not shown) [Compound 39, O1-[2,2-bis[[8-(1-methylnonoxy)-8-oxo-octanoyl]oxymethyl]-3-[4-(2-pyrrolidin-1-ylethylcarbamoyloxy)decanoyloxy]propyl]O8-(1-methylnonyl) octanedioate] the “Organ Mean Total Flux Femur” value (Mouse 11, dose 0.5 mg/kg) was 2.6 p/s (×10^6), the “Organ Mean Total Flux Heart” value (Mouse 11, dose 0.5 mg/kg) was 6.5 p/s (×10^6) and the “Organ Mean Total Flux Kidney” value (Mouse 11, dose 0.5 mg/kg) was 2.3 p/s (×10^6). For the same compound, the “Organ Mean Total Flux Liver” value (Mouse 11, dose 0.5 mg/kg) was 3390 p/s (×10^6), the “Organ Mean Total Flux Lung” value (Mouse 11, dose 0.5 mg/kg) was 19.6 p/s (×10^6) and the “Organ Mean Total Flux Muscle” value (Mouse 11, dose 0.5 mg/kg) was 11.0 p/s (×10^6). For the same compound, the “Organ Mean Total Flux Pancreas” value (Mouse 11, dose 0.5 mg/kg) was 1.1 p/s (×10^6) and the “Organ Mean Total Flux Spleen” value (Mouse 11, dose 0.5 mg/kg) was 2.9 p/s (×10^6).

For CCCCCCC(CCC(=O)OCC(COC(=O)CCCCOC(=O)C(CCCC)CCCCCC)(COC(=O)CCCCOC(=O)C(CCCC)CCCCCC)COC(=O)CCCCOC(=O)C(CCCC)CCCCCC)OC(=O)NCCN1CCCC1 (stereo not shown) [Compound 56, [5-[2,2-bis[5-(2-butyloctanoyloxy)pentanoyloxymethyl]-3-[4-(2-pyrrolidin-1-ylethylcarbamoyloxy)decanoyloxy]propoxy]-5-oxo-pentyl]2-butyloctanoate], the “Organ Mean Total Flux Femur” value (Mouse 3, dose 1.0 mg/kg) was 6.4 p/s (×10^6), the “Organ Mean Total Flux Heart” value (Mouse 3, dose 1.0 mg/kg) was 17.7 p/s (×10^6) and the “Organ Mean Total Flux Kidney” value (Mouse 3, dose 1.0 mg/kg) was 9.4 p/s (×10^6). For the same compound, the “Organ Mean Total Flux Liver” value (Mouse 3, dose 1.0 mg/kg) was 15800 p/s (×10^6), the “Organ Mean Total Flux Lung” value (Mouse 3, dose 1.0 mg/kg) was 66.6 p/s (×10^6) and the “Organ Mean Total Flux Muscle” value (Mouse 3, dose 1.0 mg/kg) was 19.7 p/s (×10^6). For the same compound, the “Organ Mean Total Flux Pancreas” value (Mouse 3, dose 1.0 mg/kg) was 3.4 p/s (×10^6) and the “Organ Mean Total Flux Spleen” value (Mouse 3, dose 1.0 mg/kg) was 13.0 p/s (×10^6).

CCCCC/C=C\CCOC(=O)CCCCC(=O)OCC(COC(=O)CCCCC(=O)OCC/C=C\CCCCC)(COC(=O)CCC(CCCCCC)OC(=O)NCCN1CCCC1)COC(=O)C1CC2(C1)CC(F)(F)C2 (stereo not shown) [Compound 100, O6-[2-[(2,2-difluorospiro[3.3]heptane-6-carbonyl)oxymethyl]-2-[[6-[(Z)-non-3-enoxy]-6-oxo-hexanoyl]oxymethyl]-3-[4-(2-pyrrolidin-1-ylethylcarbamoyloxy)decanoyloxy]propyl]O1-[(Z)-non-3-enyl]hexanedioate] was tested, and the “Organ Mean Total Flux Femur” value (Mouse 12, dose 0.5 mg/kg) was 13.8 p/s (×10^6), the “Organ Mean Total Flux Heart” value (Mouse 12, dose 0.5 mg/kg) was 0.7 p/s (×10^6) and the “Organ Mean Total Flux Kidney” value (Mouse 12, dose 0.5 mg/kg) was 2.3 p/s (×10^6). For the same compound, the “Organ Mean Total Flux Liver” value (Mouse 12, dose 0.5 mg/kg) was 273.0 p/s (×10^6), the “Organ Mean Total Flux Lung” value (Mouse 12, dose 0.5 mg/kg) was 37.8 p/s (×10^6) and the “Organ Mean Total Flux Muscle” value (Mouse 12, dose 0.5 mg/kg) was 4.0 p/s (×10^6). The “Organ Mean Total Flux Pancreas” value (Mouse 12, dose 0.5 mg/kg) was 25.2 p/s (×10^6) and the “Organ Mean Total Flux Spleen” value (Mouse 12, dose 0.5 mg/kg) was 163.7 p/s (×10^6).

In the case of CCCCCCCCOC(=O)CCCCCCC(=O)OCC(COC(=O)CCCCCCC(=O)OCCCCCCCC)(COC(=O)CCCCCCC(=O)OCCCCCCCC)COC(=O)CCC(CCCCCC)OC(=O)NCCN1CCCC1 (stereo not shown) [Compound 33, O8-[2,2-bis[(8-octoxy-8-oxo-octanoyl)oxymethyl]-3-[4-(2-pyrrolidin-1-ylethylcarbamoyloxy)decanoyloxy]propyl]O1-octyl octanedioate], the “Organ Mean Total Flux Femur” value (Mouse 6, dose 0.5 mg/kg) is reported as 21.3 p/s (×10^6), the “Organ Mean Total Flux Heart” value (Mouse 6, dose 0.5 mg/kg) is reported as 2.8 p/s (×10^6) and the “Organ Mean Total Flux Kidney” value (Mouse 6, dose 0.5 mg/kg) is reported as 3.0 p/s (×10^6). The “Organ Mean Total Flux Liver” value (Mouse 6, dose 0.5 mg/kg) was 1024 p/s (×10^6), the “Organ Mean Total Flux Lung” value (Mouse 6, dose 0.5 mg/kg) was 16.9 p/s (×10^6) and the “Organ Mean Total Flux Muscle” value (Mouse 6, dose 0.5 mg/kg) was 53.7 p/s (×10^6). For the same compound, the “Organ Mean Total Flux Pancreas” value (Mouse 6, dose 0.5 mg/kg) was 9.2 p/s (×10^6) and the “Organ Mean Total Flux Spleen” value (Mouse 6, dose 0.5 mg/kg) was 30.1 p/s (×10^6).
